System: primary rat mixed cortical cells
Test: In vitro myelination assay (MBP positive myelin strands, fold myelin pixels above background)
Format: cell-based
Conditions: Rattus norvegicus, relative to baseline of no added compound, read-out: Fold myelin pixels above background; for fold induction at 1 µM: 1.0 μM compound; for fold induction at 10 µM: 10.0 μM compound
Procedure, shortened: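 Myelination read as total MBP-immunopositive strand pixels per well, imaged at 10× after fixation on day 14 and expressed relative to untreated wells, at 1.0 and 10.0 μM. Cells: dissociated postnatal day 1 rat cortex, cultured two weeks with compound, re-dosed at days 6 and 10.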

| SMILES | fold induction at 1 µM | fold induction at 10 µM |
| --- | --- | --- |
| CCc1cc(Nc2ncn(-c3ccc(F)c(F)c3)n2)cc(N2CCN(C3(C)COC3)CC2)c1 [Compound 577, 1-(3,4-difluorophenyl)-N-[3-ethyl-5-[4-(3-methyloxetan-3-yl)piperazin-1-yl]phenyl]-1,2,4-triazol-3-amine] | 10 to 100 | 10 to 100 |
| Cc1cc(Nc2ncn(-c3cccc(C(F)(F)F)c3)n2)nc(N2CCN(C3COC3)CC2)c1 [Compound 578, 4-methyl-6-[4-(oxetan-3-yl)piperazin-1-yl]-N-[1-[3-(trifluoromethyl)phenyl]-1,2,4-triazol-3-yl]pyridin-2-amine] | 1 to 10 | 10 to 100 |
| CC(F)(F)c1cc(Nc2ncn(-c3ccc(F)c(F)c3)n2)nc(N2CCN(C3COC3)CC2)c1 [Compound 579, 4-(1,1-difluoroethyl)-N-[1-(3,4-difluorophenyl)-1,2,4-triazol-3-yl]-6-[4-(oxetan-3-yl)piperazin-1-yl]pyridin-2-amine] | 1 to 10 | 1 to 10 |
| Cc1cc(Nc2ncn(-c3cc(F)cc(F)c3)n2)nc(N2CCN(C3(C)COC3)CC2)c1 [Compound 580, N-[1-(3,5-difluorophenyl)-1,2,4-triazol-3-yl]-4-methyl-6-[4-(3-methyloxetan-3-yl)piperazin-1-yl]pyridin-2-amine] | ≤ 1 | 1 to 10 |
| Cc1cc(Nc2ncn(-c3cc(F)cc(F)c3)n2)cc(C2CN(C3COC3)CCO2)c1 (stereo not drawn) [Compound 581, 1-(3,5-difluorophenyl)-N-[3-methyl-5-[4-(oxetan-3-yl)morpholin-2-yl]phenyl]-1,2,4-triazol-3-amine] | 10 to 100 | ≤ 1 |
| Cc1cc(Nc2ncn(-c3cc(F)cc(F)c3)n2)cc(N2CCN(C(=O)N3CCOCC3)CC2)c1 [Compound 582, [4-[3-[[1-(3,5-difluorophenyl)-1,2,4-triazol-3-yl]amino]-5-methyl-phenyl]piperazin-1-yl]-morpholino-methanone] | 1 to 10 | 10 to 100 |
| Cc1cc(CN2CCN(C3COC3)CC2)cc(Nc2ncn(-c3cnccn3)n2)c1 [Compound 583, N-[3-methyl-5-[[4-(oxetan-3-yl)piperazin-1-yl]methyl]phenyl]-1-pyrazin-2-yl-1,2,4-triazol-3-amine] | 10 to 100 | 10 to 100 |
| COC[C@H](C)NC(=O)C1CN(c2cc(C)cc(Nc3ncn(-c4cc(F)cc(F)c4)n3)c2)C1 [Compound 584, 1-[3-[[1-(3,5-difluorophenyl)-1,2,4-triazol-3-yl]amino]-5-methyl-phenyl]-N-[(1S)-2-methoxy-1-methyl-ethyl]azetidine-3-carboxamide] | 10 to 100 | 1 to 10 |
| Cc1cc(Nc2ncn(-c3cccnc3)n2)cc(N2CCN(C3(C)COC3)CC2)c1 [Compound 585, N-[3-methyl-5-[4-(3-methyloxetan-3-yl)piperazin-1-yl]phenyl]-1-(3-pyridyl)-1,2,4-triazol-3-amine] | 10 to 100 | 1 to 10 |
| Cc1cc(Nc2ncn(-c3cc(F)cc(F)c3)n2)cc(N2CC(N3CCOC4(CC4)C3)C2)c1 [Compound 586, 1-(3,5-difluorophenyl)-N-[3-methyl-5-[3-(4-oxa-7-azaspiro[2.5]octan-7-yl)azetidin-1-yl]phenyl]-1,2,4-triazol-3-amine] | 10 to 100 | 10 to 100 |
| Cc1cc(N2CCN(C3COC3)CC2)cc(Nc2ncn(-c3cc(F)cc(F)c3)n2)c1F [Compound 587, 1-(3,5-difluorophenyl)-N-[2-fluoro-3-methyl-5-[4-(oxetan-3-yl)piperazin-1-yl]phenyl]-1,2,4-triazol-3-amine] | 1 to 10 | 10 to 100 |
| Cc1cc(Nc2ncn(-c3ccccc3)n2)cc(Nc2ncc(C)s2)c1 [Compound 588, 5-methyl-N1-(5-methylthiazol-2-yl)-N3-(1-phenyl-1,2,4-triazol-3-yl)benzene-1,3-diamine] | 10 to 100 | ≤ 1 |
| Cc1cc(Nc2ncn(-c3cc(F)cc(F)c3)n2)cc(N2CCC(C(=O)N3CCOCC3)CC2)c1 [Compound 589, [1-[3-[[1-(3,5-difluorophenyl)-1,2,4-triazol-3-yl]amino]-5-methyl-phenyl]-4-piperidyl]-morpholino-methanone] | 10 to 100 | ≤ 1 |
| Cc1cc(Nc2ncn(-c3ccc(F)c(F)c3)n2)cc(OC2CCCN(C3COC3)C2)c1 (stereo not drawn) [Compound 590, 1-(3,4-difluorophenyl)-N-[3-methyl-5-[[1-(oxetan-3-yl)-3-piperidyl]oxy]phenyl]-1,2,4-triazol-3-amine] | 10 to 100 | 1 to 10 |
| Cc1c(Nc2ncn(-c3cc(F)cc(F)c3)n2)cc(N2CCN(C3COC3)CC2)cc1OC(C)C [Compound 591, 1-(3,5-difluorophenyl)-N-[3-isopropoxy-2-methyl-5-[4-(oxetan-3-yl)piperazin-1-yl]phenyl]-1,2,4-triazol-3-amine] | 10 to 100 | 10 to 100 |
| N#Cc1cc(Nc2ncn(-c3ccccc3)n2)cc(N2CCN(C3COC3)CC2)c1 [Compound 592, 3-[4-(oxetan-3-yl)piperazin-1-yl]-5-[(1-phenyl-1,2,4-triazol-3-yl)amino]benzonitrile] | 1 to 10 | ≤ 1 |
| Cc1cc(Nc2ncn(-c3cc(F)cc(F)c3)n2)cc(N2CCN(CCN3CCOCC3)CC2)c1 [Compound 593, 1-(3,5-difluorophenyl)-N-[3-methyl-5-[4-(2-morpholinoethyl)piperazin-1-yl]phenyl]-1,2,4-triazol-3-amine] | 1 to 10 | ≤ 1 |
| Fc1cc(Nc2ncn(-c3cccc(F)c3)n2)cc(N2CCN(C3COC3)CC2)c1 [Compound 594, N-[3-fluoro-5-[4-(oxetan-3-yl)piperazin-1-yl]phenyl]-1-(3-fluorophenyl)-1,2,4-triazol-3-amine] | 1 to 10 | 1 to 10 |
| Cc1cc(Nc2ncn(-c3cccc(C(F)F)c3)n2)cc(N2CC(N3CCOCC3)C2)c1 [Compound 595, 1-[3-(difluoromethyl)phenyl]-N-[3-methyl-5-(3-morpholinoazetidin-1-yl)phenyl]-1,2,4-triazol-3-amine] | 1 to 10 | ≤ 1 |
| Cc1cc(CN2CCN(C3COC3)CC2)cc(Nc2ncn(-c3cc(F)cc(F)c3)n2)c1 [Compound 596, 1-(3,5-difluorophenyl)-N-[3-methyl-5-[[4-(oxetan-3-yl)piperazin-1-yl]methyl]phenyl]-1,2,4-triazol-3-amine] | 10 to 100 | 10 to 100 |
| Cc1cc(Nc2ncn(-c3ccc(F)c(Cl)c3)n2)cc(N2CCN(C3COC3)CC2)c1 [Compound 597, 1-(3-chloro-4-fluoro-phenyl)-N-[3-methyl-5-[4-(oxetan-3-yl)piperazin-1-yl]phenyl]-1,2,4-triazol-3-amine] | 1 to 10 | ≤ 1 |
| Fc1cc(Nc2ncn(-c3cnccn3)n2)cc(N2CCN(C3COC3)CC2)c1 [Compound 598, N-[3-fluoro-5-[4-(oxetan-3-yl)piperazin-1-yl]phenyl]-1-pyrazin-2-yl-1,2,4-triazol-3-amine] | 1 to 10 | 1 to 10 |
| COc1cc(Nc2ncn(-c3cc(F)cc(F)c3)n2)nc(N2CCN(C3COC3)CC2)c1 [Compound 599, N-[1-(3,5-difluorophenyl)-1,2,4-triazol-3-yl]-4-methoxy-6-[4-(oxetan-3-yl)piperazin-1-yl]pyridin-2-amine] | 10 to 100 | 10 to 100 |
| Cc1cc(Nc2ncn(-c3cccc(C(F)(F)F)c3)n2)nc(NC2CCOC2)c1 (stereo not drawn) [Compound 600, 4-methyl-N2-tetrahydrofuran-3-yl-N6-[1-[3-(trifluoromethyl)phenyl]-1,2,4-triazol-3-yl]pyridine-2,6-diamine] | 1 to 10 | 10 to 100 |
| Fc1cc(F)cc(-n2cnc(Nc3cc(C(F)(F)F)cc(N4CC(N5CCOCC5)C4)n3)n2)c1 [Compound 601, N-[1-(3,5-difluorophenyl)-1,2,4-triazol-3-yl]-6-(3-morpholinoazetidin-1-yl)-4-(trifluoromethyl)pyridin-2-amine] | 1 to 10 | ≤ 1 |
| Cc1cc(Nc2ncn(-c3cc(F)cc(F)c3)n2)cc(N2CC(N3CCOC(C)(C)C3)C2)c1 [Compound 602, 1-(3,5-difluorophenyl)-N-[3-[3-(2,2-dimethylmorpholin-4-yl)azetidin-1-yl]-5-methyl-phenyl]-1,2,4-triazol-3-amine] | 1 to 10 | 1 to 10 |
| CCn1cnc(Nc2cc(C)cc(Nc3ncn(-c4ccccc4)n3)c2)n1 [Compound 604, N1-(1-ethyl-1,2,4-triazol-3-yl)-5-methyl-N3-(1-phenyl-1,2,4-triazol-3-yl)benzene-1,3-diamine] | 10 to 100 | ≤ 1 |
| Cc1cc(Nc2ncn(-c3cc(F)cc(F)c3)n2)cc(OCc2ccn(C)n2)c1 [Compound 605, 1-(3,5-difluorophenyl)-N-[3-methyl-5-[(1-methylpyrazol-3-yl)methoxy]phenyl]-1,2,4-triazol-3-amine] | 10 to 100 | 10 to 100 |
| Cc1cc(Nc2ncn(-c3ccc(F)cc3)n2)cc(N2CC(N3CCOCC3)C2)c1 [Compound 606, 1-(4-fluorophenyl)-N-[3-methyl-5-(3-morpholinoazetidin-1-yl)phenyl]-1,2,4-triazol-3-amine] | 1 to 10 | 1 to 10 |
| N#Cc1cc(Nc2ncn(-c3ccc(F)c(F)c3)n2)nc(N2CCN(C3COC3)CC2)c1 [Compound 607, 2-[[1-(3,4-difluorophenyl)-1,2,4-triazol-3-yl]amino]-6-[4-(oxetan-3-yl)piperazin-1-yl]pyridine-4-carbonitrile] | 10 to 100 | 10 to 100 |
